# Measured values reported in patent US7217698B2, “Use of mannosamine derivatives for the stimulation of neurite growth” (Dompatent von Kreisler Selting Werner, priority 2001, dated 2007).
# System: PC12 cells
# Experiment: Neurite growth of NGF-stimulated PC12 cells with added ManNProp
# Type: cell-based
# Details: two days, control NGF only
# Procedure: It is known that stimulation with nerve growth factor (NGF) causes neuronal differentiation in PC12 cells. At an NGF concentration of 250 ng/ml and after three days of incubation, the PC12 cells already form a network of neurites. In order to examine whether the addition of ManNProp has an influence on the neurite formation by PC12 cells, the suitable neurite lengths for different incubation times were first titrated with different NGF concentrations. At an NGF concentration of 100 ng and an incubation time of two days, the cells formed neurites whose length were double the diameter of their cell. Under such conditions, the further course of the experiments was set up. The cells were plated with a constant number of cells on culture chambers which consisted of four chambers and were coated with collagen I (col.), poly-D-lysine (PDL) or laminin, and incubated under three different sets of conditions. Each variation was represented in duplicate. In the first chamber, the PC12 cells were incubated with 5 mM ManNProp, and in the second chamber, they were incubated with 100 ng of NGF. […] The first and second chambers served as a reference control for the cells under the influence of NGF and ManNProp. For each experiment, three culture chambers were sown in duplicate. After two days of incubation, the cells were fixed with paraformaldehyde, stained with crystal violet and washed with water. For evaluation, various segments were photographed and measured according to a random choice principle. For the evaluation, only the cells stimulated with NGF which served as a control and the cells stimulated with NGF plus ManNProp were considered. Each bar represents three experiments performed on three different days. The relative neurite length was established by CAPA (computer-assisted process analysis), and the data were integrated by means of Delta Graph. All experiments shown here were independently performed on different days. The values from Table 1 were additionally represented graphically in FIG. 3.
structure (smiles),measurement,setting,value
"CCC(=O)N[C@@H]1C(O)O[C@H](CO)[C@@H](O)[C@@H]1O (stereo partly drawn) [ManNProp, N-propanoylmannosamine]",Enhancement of neurite growth in percent relative to the control,"Col. (collagen I) coating, 0.5 mM ManNProp + 100 ng NGF",3%
same,Enhancement of neurite growth in percent relative to the control,"Col. (collagen I) coating, 5 mM ManNProp + 100 ng NGF",11%
same,Enhancement of neurite growth in percent relative to the control,"Col. (collagen I) coating, 25 mM ManNProp + 100 ng NGF",20%
same,Enhancement of neurite growth in percent relative to the control,"Laminin coating, 0.5 mM ManNProp + 100 ng NGF",28%
same,Enhancement of neurite growth in percent relative to the control,"Laminin coating, 5 mM ManNProp + 100 ng NGF",70%
same,Enhancement of neurite growth in percent relative to the control,"Laminin coating, 25 mM ManNProp + 100 ng NGF",59%
same,Enhancement of neurite growth in percent relative to the control,"PDL (poly-D-lysine) coating, 0.5 mM ManNProp + 100 ng NGF",4%
same,Enhancement of neurite growth in percent relative to the control,"PDL (poly-D-lysine) coating, 5 mM ManNProp + 100 ng NGF",5%
same,Enhancement of neurite growth in percent relative to the control,"PDL (poly-D-lysine) coating, 25 mM ManNProp + 100 ng NGF",17%
